According to patent US9518022B2, “Anti-HIV compounds” (priority 2014, dated 2016):
Read-outs that look alike come from different tables or passages of the source.

Experiment: Cytotoxicity assay (AlamarBlue) in mock infected MT-2 cells
Format: cell-based
Settings: human
Method: The present assay was used to screen candidate antiviral compounds by quantification of virus spread and production over several rounds of infection in vitro. MT-2, a HIV-1 permissive human T-cell line, was seeded in microtiter plates and was simultaneously treated with serially diluted compound and inoculated with a HIV-1 NL4-3 viral clone engineered to express Renilla luciferase in place of Nef. Following treatment, the culture was incubated for 96 hours. After the incubation, media was collected and used to estimate relative infectivity on the indicator cell line, TZM-bl. Additionally, viral spread was quantified by measuring luciferase activity via a commercially available luciferase substrate. In parallel, MT-2 cells were seeded and inoculated with mock virus in the presence of serially diluted compound. Compound toxicity was quantified 96 hours after treatment with AlamarBlue.
MT-2 (NIH Aids reagent program 237) cells were grown and maintained in an incubator at 37° C. with 5% CO2 using a basal medium of RPMI-1640 supplemented with 10% FBS. Cells were seeded in 100 μl at 2×10^4 cells/well in white walled 96-well microtiter plates. Candidate compounds were 3-fold serially diluted in the appropriate solvent. Solvent without compound was used as a no drug reference. Cells were inoculated at a multiplicity of 0.027 with an HIV-1 NL4-3 virus stock engineered to express Renilla luciferase in place of Nef. Diluted virus stock was first added to serially diluted compound. Compound and virus were delivered to cells in an equal volume (100 μl) and treated cultures were returned to the incubator for 96 hours. In parallel, plates for cytotoxicity estimates were prepared in the same way except cells were plated in clear walled 96-well microtiter plates and were mock infected.
At 96 hours post treatment, 20 μl AlamarBlue proliferation reagent was added to 200 μl treated and mock infected cultures and incubated for 3 hours at 37° C. with 5% CO2 then read at 545, 590 nm on fluorescence plate reader (Biotek).
For all assays, data was imported into Accelrys Assay Explorer 3.3. In Assay Explorer, % inhibition (antiviral or cytotoxicity) was calculated using the solvent control as a reference by the following equation: 1−(SignalCompound/SignalReference). The % Inhibition and compound concentration data was fitted using the following 4-parameter logistic model (Assay Explorer model 42):
[formula] where X is compound concentration, Y is % inhibition, D is the maximum % Inhibition (constrained to 100%), C is IC50 value or inflection point, B is the hill slope, and A is the minimum % inhibition (constrained to 0%). The IC50 value is reported as the EC50 or CC50 depending on the assay endpoint. EC50 represents the effective concentration at which virus replication is inhibited by 50 percent. CC50 represents the concentration that results in the death of 50 percent of the host cells. The selectivity or therapeutic index (SI or TI), is the ratio of CC50 over EC50 and represents the relative effectiveness in inhibiting viral replication compared to inducing cell death.

[1] = mock infected MT-2 cells, 96 hours, AlamarBlue, read-out: CC50

Compound: COc1cc(C)c(/C=C/C2NCCc3cc(OCc4ccccc4)c(OC)cc32)cc1OCc1ccccc1 (stereo not shown) [AF, 6-benzyloxy-1-[(E)-2-(5-benzyloxy-4-methoxy-2-methyl-phenyl)vinyl]-7-methoxy-1,2,3,4-tetrahydroisoquinoline]
- CC50 at 96 h: 3.87 µM

Compound: COc1cc2c(cc1OCc1ccccc1)CCNC2/C=C/c1ccc(OC)c(C)c1C (stereo not shown) [EL, 6-(benzyloxy)-7-methoxy-1-[(E)-2-(4-methoxy-2,3-dimethylphenyl)ethenyl]-1,2,3,4-tetrahydroisoquinoline]
- CC50 at 96 h: 3.25 µM

Compound: COc1cccc(/C=C/C2NCCc3cc(OCc4ccccc4)c(OC)cc32)c1 (stereo not shown) [EJ, 6-(benzyloxy)-7-methoxy-1-[(E)-2-(3-methoxyphenyl)ethenyl]-1,2,3,4-tetrahydroisoquinoline]
- CC50 at 96 h [1]: 10 µM

Compound: COc1cc2c(cc1OCc1ccccc1)CCNC2/C=C/c1cc2c(cc1C)OCO2 (stereo not shown) [BB, 6-(benzyloxy)-7-methoxy-1-[(E)-2-(6-methyl-2H-1,3-benzodioxol-5-yl)ethenyl]-1,2,3,4-tetrahydroisoquinoline]
- CC50 at 96 h: 2.98 µM

Compound: COc1cc2c(cc1OCc1ccccc1)CCNC2/C=C/c1nccs1 (stereo not shown) [DV, 6-(benzyloxy)-7-methoxy-1-[(E)-2-(1,3-thiazol-2-yl)ethenyl]-1,2,3,4-tetrahydroisoquinoline]
- CC50 at 96 h: 21.8 µM

Compound: COc1cc2c(cc1OCc1ccccc1)CCNC2/C=C/c1cc(OC)c(OCc2ccccc2)c(OC)c1 (stereo not shown) [AP, 6-(benzyloxy)-1-[(E)-2-[4-(benzyloxy)-3,5-dimethoxyphenyl]ethenyl]-7-methoxy-1,2,3,4-tetrahydroisoquinoline]
- CC50 at 96 h [1]: 1.64 µM

Compound: COc1cc2c(cc1OCc1ccccc1)CCNC2/C=C/c1ccc(C(=O)O)cc1 (stereo not shown) [EQ, 4-[(E)-2-[6-(benzyloxy)-7-methoxy-1,2,3,4-tetrahydroisoquinolin-1-yl]ethenyl]benzoic acid]
- CC50 at 96 h: 10 µM

Compound: COc1cc2occc2cc1/C=C/C1NCCc2cc(OCc3ccccc3)c(OC)cc21 (stereo not shown) [EB, 6-(benzyloxy)-7-methoxy-1-[(E)-2-(6-methoxy-1-benzofuran-5-yl)ethenyl]-1,2,3,4-tetrahydroisoquinoline]
- CC50 at 96 h: 6 µM

Compound: COc1cc2c(cc1OCc1ccccc1)CCNC2/C=C/c1cscn1 (stereo not shown) [DR, 6-(benzyloxy)-7-methoxy-1-[(E)-2-(1,3-thiazol-4-yl)ethenyl]-1,2,3,4-tetrahydroisoquinoline]
- CC50 at 96 h: 25.4 µM

Compound: COc1cc(C)c(/C=C/C2c3cc(OC)c(OCc4ccccc4)cc3CCN2C(N)=O)cc1OCc1ccccc1 (stereo not shown) [Example R, 6-benzyloxy-1-[(E)-2-(5-benzyloxy-4-methoxy-2-methyl-phenyl)vinyl]-7-methoxy-3,4-dihydro-1H-isoquinoline-2-carboxamide]
- CC50 at 96 h [1]: 39.3 µM

Compound: COc1cc2c(cc1OCc1ccccc1)CCNC2/C=C/c1cccc(-c2ccncc2)c1 (stereo not shown) [DQ, 6-(benzyloxy)-7-methoxy-1-[(E)-2-[3-(pyridin-4-yl)phenyl]ethenyl]-1,2,3,4-tetrahydroisoquinoline]
- CC50 at 96 h: 4.4 µM

Compound: COc1cc2c(cc1OCc1ccccc1)CCNC2/C=C/c1scnc1C (stereo not shown) [DY, 6-(benzyloxy)-7-methoxy-1-[(E)-2-(4-methyl-1,3-thiazol-5-yl)ethenyl]-1,2,3,4-tetrahydroisoquinoline]
- CC50 at 96 h: 21.6 µM

Compound: COc1cc2c(cc1OCc1ccccc1)CCNC2c1ccccc1CNC(=O)OC(C)(C)C (stereo not shown) [AZ, tert-butyl N-({2-[6-(benzyloxy)-7-methoxy-1,2,3,4-tetrahydroisoquinolin-1-yl]phenyl}methyl)carbamate]
- CC50 at 96 h: 9.48 µM

Compound: COc1cc(/C=C/C2NCCc3cc(OC)c(OCc4ccccc4)cc32)ccc1OCc1ccccc1 (stereo not shown) [Example S, 7-benzyloxy-1-[(E)-2-(4-benzyloxy-3-methoxy-phenyl)vinyl]-6-methoxy-1,2,3,4-tetrahydroisoquinoline]
- CC50 at 96 h: 8.25 µM

Compound: COc1cc2c(cc1OCc1ccccc1)CCNC2/C=C/c1c[nH]c2ccccc12 (stereo not shown) [CJ, 6-(benzyloxy)-1-[(E)-2-(1H-indol-3-yl)ethenyl]-7-methoxy-1,2,3,4-tetrahydroisoquinoline]
- CC50 at 96 h: 6.55 µM

Compound: COc1cc2c(cc1OCc1ccccc1)CCNC2/C=C/c1ccccc1NC(=O)OC(C)(C)C (stereo not shown) [CW, tert-butyl N-{2-[(E)-2-[6-(benzyloxy)-7-methoxy-1,2,3,4-tetrahydroisoquinolin-1-yl]ethenyl]phenyl}carbamate]
- CC50 at 96 h: 23.6 µM

Compound: COc1cc2c(cc1OCc1ccccc1)CCNC2/C=C/c1cccc(-c2ncco2)c1 (stereo not shown) [EC, 6-(benzyloxy)-7-methoxy-1-[(E)-2-[3-(1,3-oxazol-2-yl)phenyl]ethenyl]-1,2,3,4-tetrahydroisoquinoline]
- CC50 at 96 h: 7.5 µM

Compound: COc1cc2c(cc1OCc1ccccc1)CCNC2/C=C/c1ccc(-c2ncco2)cc1 (stereo not shown) [ED, 6-(benzyloxy)-7-methoxy-1-[(E)-2-[4-(1,3-oxazol-2-yl)phenyl]ethenyl]-1,2,3,4-tetrahydroisoquinoline]
- CC50 at 96 h: 7.5 µM

Compound: COc1cc2c(cc1OCc1ccccc1)CCNC2/C=C/c1ccnn1C (stereo not shown) [Example AK, 6-benzyloxy-7-methoxy-1-[(E)-2-(2-methylpyrazol-3-yl)vinyl]-1,2,3,4-tetrahydroisoquinoline]
- CC50 at 96 h: 10 µM

Compound: CCCCN1CCc2cc(OCc3ccccc3)c(OC)cc2C1/C=C/c1ccc(OC)c(OCc2ccccc2)c1 (stereo not shown) [Example G, 6-Benzyloxy-1-[(E)-2-(3-benzyloxy-4-methoxy-phenyl)vinyl]-2-butyl-7-methoxy-3,4-dihydro-1H-isoquinoline]
- CC50 at 96 h: 5 µM

Compound: COc1cc2c(cc1OCc1ccccc1)CCNC2/C=C/c1cccc(C(F)(F)F)c1 (stereo not shown) [DB, 6-(benzyloxy)-7-methoxy-1-[(E)-2-[3-(trifluoromethyl)phenyl]ethenyl]-1,2,3,4-tetrahydroisoquinoline]
- CC50 at 96 h: 10 µM

Compound: COc1cc2c(cc1OCc1ccccc1)CCNC2/C=C/c1ccc(-n2cncn2)cc1 (stereo not shown) [DT, 6-(benzyloxy)-7-methoxy-1-[(E)-2-[4-(1H-1,2,4-triazol-1-yl)phenyl]ethenyl]-1,2,3,4-tetrahydroisoquinoline]
- CC50 at 96 h: 7.39 µM

Compound: COc1cc2c(cc1OCc1ccccc1)CCNC2/C=C/c1cc2c(cc1C)OCC2 (stereo not shown) [CG, 6-(benzyloxy)-7-methoxy-1-[(E)-2-(6-methyl-2,3-dihydro-1-benzofuran-5-yl)ethenyl]-1,2,3,4-tetrahydroisoquinoline]
- CC50 at 96 h: 4.8 µM

Compound: COc1ccc(/C=C/C2NCCc3cc(OCc4ccccc4)c(OC)cc32)cc1OCc1ccccc1 (stereo not shown) [Example AB, 6-benzyloxy-1-[(E)-2-(3-benzyloxy-4-methoxy-phenyl)vinyl]-7-methoxy-1,2,3,4-tetrahydroisoquinoline]
- CC50 at 96 h [1]: 3.96 µM

Compound: COc1cc2c(cc1OCc1ccccc1)CCNC2/C=C/c1cc2c(cc1C)OCCO2 (stereo not shown) [BC, 6-(benzyloxy)-7-methoxy-1-[(E)-2-(7-methyl-2,3-dihydro-1,4-benzodioxin-6-yl)ethenyl]-1,2,3,4-tetrahydroisoquinoline]
- CC50 at 96 h: 2.43 µM

Compound: CCOC(=O)c1coc(-c2ccc(/C=C/C3NCCc4cc(OCc5ccccc5)c(OC)cc43)cc2)n1 (stereo not shown) [EE, ethyl 2-{4-[(E)-2-[6-(benzyloxy)-7-methoxy-1,2,3,4-tetrahydroisoquinolin-1-yl]ethenyl]phenyl}-1,3-oxazole-4-carboxylate]
- CC50 at 96 h: 5.9 µM

Compound: COc1cc2c(cc1OCc1ccccc1)CCNC2/C=C/c1ccc2c(c1)CCO2 (stereo not shown) [BM, 6-(benzyloxy)-1-[(E)-2-(2,3-dihydro-1-benzofuran-5-yl)ethenyl]-7-methoxy-1,2,3,4-tetrahydroisoquinoline]
- CC50 at 96 h: 20.4 µM

Compound: COc1cc2c(cc1OCc1ccccc1)CCNC2/C=C/c1cc(OC(F)(F)F)ccc1C (stereo not shown) [BH, 6-(benzyloxy)-7-methoxy-1-[(E)-2-[2-methyl-5-(trifluoromethoxy)phenyl]ethenyl]-1,2,3,4-tetrahydroisoquinoline]
- CC50 at 96 h: 5.3 µM

Compound: COc1cc(C)c(/C=C/C2NCCc3cc(OCc4ccccc4)c(OC)cc32)cc1OCCCC(=O)O (stereo not shown) [BO, 4-{5-[(E)-2-[6-(benzyloxy)-7-methoxy-1,2,3,4-tetrahydroisoquinolin-1-yl]ethenyl]-2-methoxy-4-methylphenoxy}butanoic acid]
- CC50 at 96 h: 8.96 µM

Compound: COc1cc(OC)c(OC)cc1/C=C/C1NCCc2cc(OCc3ccccc3)c(OC)cc21 (stereo not shown) [AQ, 6-(benzyloxy)-7-methoxy-1-[(E)-2-(2,4,5-trimethoxyphenyl)ethenyl]-1,2,3,4-tetrahydroisoquinoline]
- CC50 at 96 h [1]: 1.98 µM

Compound: CCCCOc1cc(/C=C/C2NCCc3cc(OCc4ccccc4)c(OC)cc32)ccc1OC (stereo not shown) [BE, 6-(benzyloxy)-1-[(E)-2-(3-butoxy-4-methoxyphenyl)ethenyl]-7-methoxy-1,2,3,4-tetrahydroisoquinoline]
- CC50 at 96 h: 3.75 µM
